Calls of active or inactive are those of the source. The rule behind the calls is not given here.
Legend:
[1] = biological target: T1, Autotaxin (Homo sapiens, UniProt Q13822); assay: Inhibition of human ATX phosphodiesterase expressed in Sf9 cells assessed as hydrolysis of FS-3 measured after 5 to 25 mins by fluorescence assay
[2] = tested on: MeWo; assay: Antitumor activity against human MeWo cells xenografted in athymic nude mouse assessed as reduction of ATX level in serum at 30 mg/kg, ip administered every other day of 21 days post tumor cell injection; type: functional, organism-based
[3] = tested on: MeWo; assay: Antitumor activity against human MeWo cells xenografted in athymic nude mouse at 30 mg/kg, ip administered every other day of 21 days post tumor cell injection; type: functional, organism-based
[4] = biological target: T1, Autotaxin; assay: Inhibition of human ATX phosphodiesterase expressed in Sf9 cells assessed as hydrolysis of FS-3 at 10 uM measured after 5 to 25 mins by fluorescence assay
[5] = biological target: T1, Autotaxin; assay: Irreversible inhibition of human ATX phosphodiesterase activity expressed in Sf9 cells assessed as hydrolysis of FS-3 preincubated for 2 mins before substrate addition measured 1000 fold dilution by fluorescence assay
[6] = tested on: MeWo; assay: Cytotoxicity against human MeWo cells assessed as reduction of cell viability after 48 hrs by CellTiter-Blue assay; type: functional
[7] = tested on: MDA-MB-231; assay: Inhibition of cell migration in human MDA-MB-231 cells assessed as gap closure distance at 5 uM after 24 hrs by wound healing assay in presence of 1 uM of LPA; type: functional, cell-based
[8] = tested on: MeWo; assay: Inhibition of cell migration in human MeWo cells assessed as gap closure distance at 5 uM after 24 hrs by wound healing assay in presence of 1 uM of LPA; type: functional, cell-based
[9] = tested on: OVCAR-3; assay: Inhibition of cell migration in human OVCAR3 cells assessed as gap closure distance at 5 uM after 24 hrs by wound healing assay; type: functional; conditions: OVCAR-3, 24 h
[10] = tested on: HT-29; assay: Cytotoxicity against human HT-29 cells after 48 hrs by CellTiter-Blue assay; type: functional, cell-based; conditions: HT-29, 48 h
[11] = tested on: MeWo; assay: Antitumor activity against human MeWo cells xenografted in athymic nude mouse assessed as reduction of KC/CXCL-1 level in serum at 50 mg/kg, ip administered every other day of 21 days post tumor cell injection; type: functional, organism-based
[12] = tested on: SK-OV-3; assay: Cytotoxicity against human SKOV3 cells after 48 hrs by CellTiter-Blue assay; type: functional, cell-based; conditions: SK-OV-3, 48 h
[13] = tested on: MDA-MB-231; assay: Cytotoxicity against human MDA-MB-231 cells after 48 hrs by CellTiter-Blue assay; type: functional, cell-based; conditions: MDA-MB-231, 48 h
[14] = tested on: OVCAR-3; assay: Inhibition of cell migration in human OVCAR3 cells assessed as gap closure distance at 5 uM after 24 hrs by wound healing assay in presence of 1 uM of LPA; type: functional, cell-based
[15] = tested on: MeWo; assay: Antitumor activity against human MeWo cells xenografted in athymic nude mouse assessed as reduction of ATX level in serum at 50 mg/kg, ip administered every other day of 21 days post tumor cell injection; type: functional, organism-based
[16] = tested on: SK-OV-3; assay: Inhibition of cell migration in human SKOV3 cells assessed as gap closure distance at 5 uM after 24 hrs by wound healing assay; type: functional, cell-based
[17] = tested on: MeWo; assay: Antitumor activity against human MeWo cells xenografted in athymic nude mouse assessed as necrosis in tumor at 50 mg/kg, ip administered every other day of 21 days post tumor cell injection up to 48 days followed by administered 40 mg/kg, ip using hematoxylin and eosin staining; type: functional, organism-based
[18] = tested on: MeWo; assay: Cytotoxicity against human MeWo cells after 48 hrs by CellTiter-Blue assay; type: functional, cell-based
[19] = tested on: OVCAR-3; assay: Cytotoxicity against human OVCAR3 cells after 48 hrs by CellTiter-Blue assay; type: functional, cell-based; conditions: OVCAR-3, 48 h
[20] = tested on: MDA-MB-231; assay: Inhibition of cell migration in human MDA-MB-231 cells assessed as gap closure distance at 5 uM after 24 hrs by wound healing assay; type: functional; conditions: MDA-MB-231, 24 h
[21] = tested on: Mus musculus; assay: Toxicity in human MeWo cells xenografted athymic nude mouse assessed as severe dehydration at 50 mg/kg, ip administered every other day of 21 days post tumor cell injection measured on day 45; type: organism-based; conditions: in vivo, 504 h
[22] = biological target: T1, Autotaxin; assay: Inhibition of human ATX phosphodiesterase expressed in Sf9 cells assessed as hydrolysis of FS-3 preincubated for 2 mins before substrate addition measured after 5 to 25 mins by fluorescence assay
[23] = tested on: MeWo; assay: Inhibition of cell migration in human MeWo cells assessed as gap closure distance at 5 uM after 24 hrs by wound healing assay; type: functional, cell-based
[24] = Cytotoxicity against human SB2 cells after 48 hrs by CellTiter-Blue assay; type: functional, cell-based; conditions: SB2, 48 h
[25] = tested on: MeWo; assay: Antitumor activity against human MeWo cells xenografted in athymic nude mouse assessed as necrotic endothelial cells at 50 mg/kg, ip administered every other day of 21 days post tumor cell injection up to 48 days followed by administered 40 mg/kg, ip using hematoxylin and eosin staining; type: functional, organism-based
[26] = tested on: PC-3; assay: Cytotoxicity against human PC3 cells after 48 hrs by CellTiter-Blue assay; type: functional, cell-based; conditions: PC-3, 48 h
[27] = tested on: Mus musculus; assay: Toxicity in human MeWo cells xenografted athymic nude mouse assessed as mortality at 50 mg/kg, ip administered every other day of 21 days post tumor cell injection measured on day 45; type: organism-based; conditions: in vivo, 504 h
[28] = tested on: SK-OV-3; assay: Inhibition of cell migration in human SKOV3 cells assessed as gap closure distance at 5 uM after 24 hrs by wound healing assay in presence of 1 uM of LPA; type: functional, cell-based
[29] = tested on: Mus musculus; assay: Toxicity in human MeWo cells xenografted athymic nude mouse assessed as mortality at 50 mg/kg, ip administered every other day of 21 days post tumor cell injection up to 48 days followed by administered 40 mg/kg, ip; type: organism-based; conditions: in vivo

**Q.** For C=C(CCCCCCCC/C=C\CCCCCCCC)S(=O)(=O)CCC[N+](C)(C)C, which Ki [1] is on record?
**A.** The Ki was 2.43 µM.

**Q.** Which Activity [2] does the source give for O=C(CCN1CCN(C(=O)OCc2cc(Cl)cc(Cl)c2)CC1)c1ccc2[nH]c(=O)oc2c1 here?
**A.** The Activity was “inactive”.

**Q.** What about the Activity [3] of the same compound?
**A.** The Activity was “inactive”.

**Q.** Which inhibition [4] does the source give for C=C(CCCCCCCCCCCCCCCC)S(=O)(=O)c1ccccc1 here?
**A.** The inhibition was “inactive”.

**Q.** And the inhibition [5]?
**A.** Its inhibition is “inactive”.

**Q.** Which Activity [2] does the source give for O=C1S/C(=C\c2ccc(OCc3cccc(B(O)O)c3)cc2)C(=O)N1Cc1ccc(F)cc1 here?
**A.** Its Activity is “inactive”.

**Q.** And the Activity [3]?
**A.** Its Activity is “inactive”.

**Q.** And the Activity [6]?
**A.** The Activity was under 25%.

**Q.** With C=C(CCCCCC)S(=O)(=O)CCC[N+](C)(C)C as the compound, how does the inhibition [4] read?
**A.** The inhibition was “inactive”.

**Q.** For C=C(CCCCCCCCCCCC)S(=O)(=O)CCC[N+](C)(C)C, which Ki [1] is on record?
**A.** The Ki was 1.79 µM.

**Q.** With C=C(CCCCCCCCCCCCCCCC)S(=O)(=O)CCC[N+](C)(C)C.[Cl-] as the compound, how does the inhibition [7] read?
**A.** The inhibition was “Active”.

**Q.** What about the inhibition [8] of the same compound?
**A.** Its inhibition is “Active”.

**Q.** What about the inhibition at 5 µM [9] of the same compound?
**A.** Its inhibition at 5 µM is 75%.

**Q.** What about the IC50 [10] of the same compound?
**A.** The IC50 was 2.11 µM.

**Q.** And the Activity [11]?
**A.** The Activity was “Active”.

**Q.** What about the Ki [1] of the same compound?
**A.** Its Ki is 3.5 µM.

**Q.** And the IC50 [12]?
**A.** The IC50 was 6.74 µM.

**Q.** And the IC50 [13]?
**A.** The IC50 was 0.39 µM.

**Q.** What about the inhibition [14] of the same compound?
**A.** The inhibition was “Active”.

**Q.** What about the Activity [15] of the same compound?
**A.** The Activity was “Active”.

**Q.** And the inhibition [16]?
**A.** Its inhibition is “Active”.

**Q.** And the Activity [17]?
**A.** Its Activity is “Active”.

**Q.** What about the IC50 [18] of the same compound?
**A.** Its IC50 is 4.08 µM.

**Q.** What about the IC50 [19] of the same compound?
**A.** Its IC50 is 4.44 µM.

**Q.** And the inhibition at 5 µM [20]?
**A.** Its inhibition at 5 µM is 75%.

**Q.** What about the Activity [21] of the same compound?
**A.** Its Activity is “Toxic”.

**Q.** And the inhibition [5]?
**A.** Its inhibition is “Active”.

**Q.** What about the inhibition [22] of the same compound?
**A.** The inhibition was “inactive”.

**Q.** And the inhibition [23]?
**A.** The inhibition was “Active”.

**Q.** What about the Activity [6] of the same compound?
**A.** Its Activity is under 25%.

**Q.** And the IC50 [24]?
**A.** The IC50 was 4.89 µM.

**Q.** And the Activity [25]?
**A.** The Activity was “Active”.

**Q.** What about the IC50 [26] of the same compound?
**A.** Its IC50 is 1.93 µM.

**Q.** And the Activity [27]?
**A.** The Activity was “Toxic”.

**Q.** And the inhibition [28]?
**A.** The inhibition was “Active”.

**Q.** What about the Activity [29] of the same compound?
**A.** The Activity was “Non-toxic”.
